Reference: patent US11213511B2, “Composition for preventing or treating SARS coronavirus 2 infection disease” (priority 2020, dated 2022)
“And” between values parts separate entries of the source, which are not always exact repeats. Equal entries are not always repeated. Where two headings read alike, the source gives them in different places.

Assays:
SARS CoV-2 (NCCP-43326) [1] = format: cell-based
SARS CoV-2 (NCCP-43326) [2] = assay: Observation of cell morphology according to medicament treatment; format: cell-based; details: 10 to 20 μM, VERO cell, FIG. 3
SARS-CoV-2 3CL protease = SARS-CoV-2 3CL protease (Severe acute respiratory syndrome coronavirus 2, UniProt P0DTD1); assay: biochemical; details: for inhibition at 30 µM: read-out: activity of 3CL protease inhibited
[3] = molecular target: T1, ACE2 and SARS-CoV-2 Spike S1 protein binding (UniProt P0DTC2+Q9BYF1); assay: biochemical
T1 construct: Spike S1, Fc fusion, Avi-tag, Biotin Labeled (SARS-CoV-2) (BPS Bioscience, 100679); Fc fusion; Avi-tag (biotin labeled); His-Tag (Eu-labeled); purchased BPS Bioscience 100705 (ACE2); 100679 (Spike S1)
T1 sequence (Q9BYF1 18-740, one chain of several): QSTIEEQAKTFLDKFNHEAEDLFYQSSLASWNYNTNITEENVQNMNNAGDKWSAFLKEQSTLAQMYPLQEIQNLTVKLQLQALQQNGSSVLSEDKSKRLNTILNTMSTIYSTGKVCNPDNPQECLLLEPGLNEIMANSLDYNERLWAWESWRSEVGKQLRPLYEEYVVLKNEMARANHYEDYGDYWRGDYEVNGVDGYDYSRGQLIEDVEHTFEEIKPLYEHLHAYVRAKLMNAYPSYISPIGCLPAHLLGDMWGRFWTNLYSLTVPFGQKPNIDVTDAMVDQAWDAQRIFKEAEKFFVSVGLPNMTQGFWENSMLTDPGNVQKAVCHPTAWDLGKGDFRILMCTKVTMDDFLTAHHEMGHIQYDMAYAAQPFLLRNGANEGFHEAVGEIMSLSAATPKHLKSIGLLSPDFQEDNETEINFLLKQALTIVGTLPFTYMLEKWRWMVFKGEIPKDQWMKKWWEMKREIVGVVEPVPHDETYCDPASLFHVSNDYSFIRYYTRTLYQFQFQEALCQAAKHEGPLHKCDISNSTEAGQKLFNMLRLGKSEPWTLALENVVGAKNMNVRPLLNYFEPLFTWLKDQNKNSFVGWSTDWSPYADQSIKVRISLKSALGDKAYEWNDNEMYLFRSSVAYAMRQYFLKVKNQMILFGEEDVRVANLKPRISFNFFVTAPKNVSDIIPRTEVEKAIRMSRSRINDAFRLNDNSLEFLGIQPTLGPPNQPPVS

[4] = tested on: severe acute respiratory syndrome coronavirus 2; assay: Medicament efficacy of Sulfinpyrazone in SARS coronavirus 2 infected animal model (Example 7); format: in vivo, Syrian Hamster; details: 50 MPK (50 mg/kg/day), PO twice daily, 4 days of continuous administration, vs virus alone infected group
VERO cell = details: for Viability: 72 hours, MTT; for cell survival: 10 to 20 μM
[5] = tested on: severe acute respiratory syndrome coronavirus 2; parameters: species or system Syrian Hamster; details: hamster, in vivo

SMILES	CPE Reduction (%) (SARS CoV-2 (NCCP-43326) [1])	change in cell morphology of virus-infected cells (SARS CoV-2 (NCCP-43326) [2])	activity at 0.001 µM (SARS-CoV-2 3CL protease)	activity at 0.003 µM (SARS-CoV-2 3CL protease)	activity at 0.01 µM (SARS-CoV-2 3CL protease)	activity at 0.03 µM (SARS-CoV-2 3CL protease)	activity at 0.1 µM (SARS-CoV-2 3CL protease)	activity at 0.3 µM (SARS-CoV-2 3CL protease)	activity at 1 µM (SARS-CoV-2 3CL protease)	activity at 3 µM (SARS-CoV-2 3CL protease)	activity at 10 µM (SARS-CoV-2 3CL protease)	activity at 30 µM (SARS-CoV-2 3CL protease)	% Activity (SARS-CoV-2 3CL protease; 0.003 µM)	% Activity (SARS-CoV-2 3CL protease; 0.01 µM)	% Activity (SARS-CoV-2 3CL protease; 0.3 µM)	% Activity (SARS-CoV-2 3CL protease; 3 µM)	% Activity (SARS-CoV-2 3CL protease; 10 µM)	% Activity (SARS-CoV-2 3CL protease; 30 µM)	inhibition at 30 µM (SARS-CoV-2 3CL protease)	activity at 0.002 µM [3]	also measured
O=C1C(CC[S+]([O-])c2ccccc2)C(=O)N(c2ccccc2)N1c1ccccc1 (racemic) [Sulfinpyrazone, 1,2-diphenyl-4-[2-(phenylsulfinyl)ethyl]pyrazolidine-3,5-dione]	33.1 ± 7.0% and 40.7 ± 8.0%	morphology change was small	96%	104%	100%	103%	103%	102%	99%	92%	90%	82%	101%	101%	94%	95%	95%	80%	~20%	96%	% Activity (SARS-CoV-2 3CL protease; 0.001 µM): 101%; % Activity (SARS-CoV-2 3CL protease; 1 µM): 98%; TR-FRET ratio [3]: 0.96 and 0.97 and 0.95 and 0.93 and 0.94; activity at 0.005 µM [3]: 97%; activity at 0.014 µM [3]: 100%; activity at 0.041 µM [3]: 98%; activity at 0.123 µM [3]: 100%; activity at 0.37 µM [3]: 99%; activity at 1.111 µM [3]: 101%; activity at 3.333 µM [3]: 98%; activity at 10 µM [3]: 100%; activity at 30 µM [3]: 99%; efficacy in inhibiting the binding of ACE2 and Spike S1 proteins [3]: no efficacy; % Activity ([3]; 0.002 µM): 95%; % Activity ([3]; 10 µM): 95%; Gross pneumonia lesion amelioration percentage (%) [4]: 15.6%; Viability (VERO cell; 10 μM): 108.3 ± 0.4%; Viability (VERO cell; 20 μM): 99.6 ± 7.3%; cell survival (VERO cell): excellent cell survival
CCC(CC)COC(=O)[C@H](C)N[P@](=O)(OC[C@H]1O[C@@](C#N)(c2ccc3c(N)ncnn23)[C@H](O)[C@@H]1O)Oc1ccccc1 [Remdesivir]																					gross cure rate [5]: 44.3%
COc1cc(C(=O)NS(=O)(=O)c2ccccc2C)ccc1Cc1cn(C)c2ccc(NC(=O)OC3CCCC3)cc12 [Zafirlukast, cyclopentyl3-{2-methoxy-4-[(o-tolylsulfonyl)carbamoyl]benzyl}-1-methyl-1H-indol-5-ylcarbamate]	60.1 ± 7.1% and 75.6 ± 3.9%	morphology change was small	100%	95%	94%	97%	95%	95%	90%	89%	78%	52%	98%	103%	98%	87%	77%	55%	≥ 45%	91%	% Activity (SARS-CoV-2 3CL protease; 0.03 µM): 99%; activity at 0.005 µM [3]: 96%; activity at 0.014 µM [3]: 92%; activity at 0.041 µM [3]: 99%; activity at 0.123 µM [3]: 97%; activity at 0.37 µM [3]: 101%; activity at 1.111 µM [3]: 93%; activity at 3.333 µM [3]: 102%; activity at 10 µM [3]: 96%; activity at 30 µM [3]: 95%; efficacy in inhibiting the binding of ACE2 and Spike S1 proteins [3]: no efficacy; % Activity ([3]; 0.005 µM): 94%; % Activity ([3]; 10 µM): 98%; amelioration effects in the gross lung lesion [5]: very excellent amelioration effects; amelioration in bilateral pneumonia, pulmonary edema, and pulmonary bleeding aspects ([5]; po): excellent amelioration; treatment effect compared to the control medicament Remdesivir ([5]; po): superior treatment effect; Viability (VERO cell; 10 μM): 109.7 ± 2.8%; Viability (VERO cell; 20 μM): 89.3 ± 0.7%; cell survival (VERO cell): excellent cell survival
